From patent US5144017A, “Compounds that bind to digitalis receptor” (University of Manitoba, priority 1988, dated 1992)

Tests used:
[1] = target: cardiac glycoside (CG) binding site (digitalis receptor) of heart muscle; test: 3H-ouabain radioligand binding assay (RBA); set-up: species or system dog; conditions: for IC50: cardiac receptor of heart muscle, membranes from dog myocardium, read-out: binding / displacement potency in the 3H-ouabain RBA (IC50); for receptor potency relative to the aglycone: glucoside versus aglycone
Method: An extensive study has been conducted by the inventors with respect to a wide series of steroids of the pregnane and androstane type. The potencies of these steroids were determined in a ^3 H-ouabain radioligand binding assay (RBA). Past experience has indicated to the inventors that the potency of the steroids to displace the labelled cardiac glycoside (i.e. ouabain) in the assay parallel their biological activity, that is their cardiac glycoside-like activity in the ability to inhibit Na/K-ATPase and elicit characteristic cellular response.
Binding studies were carried out in a ^3 H-ouabain radioligand binding assay (RBA) generally as described by Chow et al in Br. J. Pharmac. (1979), 67, 345 to 352. The results obtained are set forth in the Examples below:
A number of progesterone derivatives, having a 17α-acetoxy group and various functions at C-3 and C-6, interact at the cardiac glycoside (CG) binding site, as measured by the RBA with membranes from dog myocardium. Experimental values are given in the Table of FIG. 4 and structures in FIG. 3. The inventors have carried out structure-activity studies concerned with modification of the A and B rings as they influence potency in the RBA. As may be seen from the data, some progesterone derivatives with 5α- or 5β-stereochemistry show receptor competing activity. Among the congeners, highest potency is associated with the presence of C-4 or C-4,6-unsaturation and a C-6 substituent (CH3, Cl, Br). The C-3 function may be carbonyl, 3β-hydroxy, 3β-acetoxy or β-D-glucoside when associated with C-4 or C-4,6 unsaturation. In compounds with other substituents that promote activity, C-6α-substitution with --CH3, --Cl or --Br strongly enhance activity, --F, --OCH3, carbonyl or the unsubstituted compound promotes weak binding, and --OC2 H5, --OAc, --OCOOCH3 or --OH eliminates binding activity. Receptor interaction with the double bond at C-4, but not C-5, appears to be particularly important for binding.

[2] = tested on: canine ventricular trabeculae muscle; test: contractile (inotropic) response of canine ventricular trabeculae muscle
[3] = intrarenal infusion: urine volume, sodium and potassium excretion; format: in vivo
Excerpt: The effects of an intrarenal infusion of ouabain and 14β-hydroxyprogesterone glucoside were compared. […] This marked natriuresis and absence of kaliuresis by the cardiotonic pregnane has practical clinical implications. […]

[4] = tested on: isolated heart muscle; test: cardiostimulation in isolated heart muscle
Excerpt: Differences in toxicity, i.e. the tolerance to increasingly-greater dosage levels before the onset of arrhythmia, exist among the various steroid glycosides.

[5] = prior art; cited from earlier work
[6] = prior art; cited from earlier work; remark: listed apart in the source
[7] = tested on: Na/K-ATPase; conditions: prior art; cited from earlier work
[8] = prior art; cited from earlier work; remark: listed apart in the source
[9] = listed as β-D-glucoside of 14β-hydroxyprogesterone

Q: With `CC(=O)[C@H]1CC[C@]2(O)[C@@H]3CCC4=C[C@@H](O[C@@H]5O[C@H](CO)[C@@H](O)[C@H](O)[C@H]5O)CC[C@]4(C)[C@H]3CC[C@]12C` [compound 8] as the molecule, how does the IC50 [1] read?
A: Its IC50 is 1.8 µM.

Q: And the “receptor potency relative to the aglycone” value ([1]; listed as 14β-OHP-glu)?
A: Its value is “about 10 times”.

Q: And the “receptor potency relative to the aglycone” value [1, 9]?
A: Its value is “approximately ten”.

Q: What about the inotropic response ([2]; dose dependent) of the same molecule?
A: The inotropic response was “positive inotropic response”.

Q: What about the “after contractions on rapid electrical stimulation (digitalis-like toxic response)” value ([2]; during peak inotropic response and subsequent depression) of the same molecule?
A: Its value is “possible to elicit spontaneous after contraction(s)”.

Q: What about the “contractile response at high concentrations” value ([2]; high concentrations) of the same molecule?
A: The value was “biphasic contractile response, an initial increase followed by a decrease”.

Q: What about the urine volume [3] of the same molecule?
A: The urine volume was “increased urine volume”.

Q: And the potassium excretion ([3]; listed as 14β-OHP-glu)?
A: Its potassium excretion is “no influence on potassium excretion”.

Q: What about the sodium excretion ([3]; listed as 14β-OHP-glu) of the same molecule?
A: The sodium excretion was “increased sodium excretion significantly”.

Q: What about the potassium excretion [3, 9] of the same molecule?
A: Its potassium excretion is “little effect on potassium excretion”.

Q: What about the sodium excretion [3, 9] of the same molecule?
A: Its sodium excretion is “increased sodium excretion”.

Q: Which results are given for `CC(=O)[C@H]1CC[C@]2(O)[C@@H]3CCC4=CC(=O)CC[C@]4(C)[C@H]3CC[C@]12C` [compound 6, 14β-hydroxyprogesterone]?
A: IC50 [1]: 10 µM; cardiostimulation [4]: elicits cardiostimulation

Q: For `C[C@@H]1O[C@@H](O[C@H]2CC[C@@]3(C)[C@H](CC[C@@H]4[C@@H]3CC[C@]3(C)[C@@H]([C@@H](C)O)CC[C@]43N)C2)[C@H](O)[C@H](O)[C@H]1O` [3β-rhamnosyloxy-14β-amino-5β-pregnane-20β-ol], which “effect on cardiac contractility compared with digoxin” value [5] is on record?
A: Its value is “superior, in terms of tolerance to higher dosage”.

Q: What about the “potency compared with the cardiac glycosides” value [6] of the same molecule?
A: The value was “as potent as the cardiac glycosides”.

Q: Which IC50 [1] does the source give for `CC(=O)[C@H]1CC[C@]2(O)[C@@H]3CC[C@@H]4CC(=O)CC[C@]4(C)[C@H]3CC[C@]12C` [compound 3] here?
A: The IC50 was 60 µM.

Q: And the “binding activity in the RBA, in words” value ([1]; qualitative statement)?
A: The value was “weaker than 14β-hydroxyprogesterone”.

Q: And the cardiostimulation [4]?
A: Its cardiostimulation is “cardiostimulant”.

Q: With `CC(=O)O[C@]1(C(C)=O)CC[C@H]2[C@@H]3C=C(Cl)C4=CC(=O)CC[C@]4(C)[C@H]3CC[C@@]21C` [compound 20, 17α-acetoxy-6-chloropregna-4,6-diene-3,20-dione, reference compound] as the molecule, how does the IC50 [1] read?
A: Its IC50 is 0.5 µM.

Q: What about the “potency in the RBA relative to ouabain” value ([1]; fraction of the potency of ouabain) of the same molecule?
A: Its value is 1/20.

Q: And the “affinity / potency at Na/K-ATPase” value [7]?
A: The value was “high affinity”.

Q: And the “effect on cardiac contractility” value [8]?
A: The value was “cardiodepression or decreased contractility”.
